The values that follow come from patent US20190119645A1, “GENERATION OF ADULT-LIKE HEART MUSCLE FROM HUMAN PLURIPOTENT STEM CELLS” (The Johns Hopkins University, priority 2015, published 2019).

The subject of one test is hiPSC-derived neurons. The experiment in a line: Patch-clamp recording of spontaneous synaptic events in hiPSC-derived neurons. The conditions noted are these: 10 μM; hiPSC-derived neurons in slices and in cultures; applied with Bic. Type of test: cell-based, human. On the procedure:
(§1) Transverse brain slices of 350 μm thickness were prepared at 8 weeks after differentiated hiPSC cells injection using a vibratome (Leica VT1200S). Slices were incubated in artificial cerebrospinal fluid (ACSF) containing (in mM): NaCl 125, KCl 2.5, MgSO4 1, NaH2PO4 1.25, NaHCO3 26, CaCl2 2, and D-glucose 10. Slices were maintained in ACSF and continuously bubbled with 95% O2 and 5% CO2, first at 34° C. for 30 min, and then at room temperature. A single slice was transferred into a submerged recording chamber and perfused constantly with carbogen-equilibrated ACSF at a rate of 2 ml/min Injected human neurons expressing RFP were visualized under a 40× water immersion objective by fluorescence and DIC optics (Carl Zeiss, Germany). […] Resting membrane potential (RMP) was recorded in current clamp mode at 0 pA immediately after establishing whole-cell configuration. Series resistance (Rseries) and input resistance (Rin) were calculated from a 5 mV pulse and monitored throughout the experiment. […]
(§2) For voltageclamp experiments, the membrane potential was typically held at −70 mV. […] Data were acquired by PatchMaster software (HEKA Elektronik, Lambrech, Germany) Na^+ and K^+ currents and action potentials were analyzed using Clampfit 10.5 software (Molecular devices, Palo Alto, Calif., USA). Spontaneous synaptic events were analyzed using MiniAnalysis software (Synaptosoft, Decatur, Ga., USA). […]

The subject of test [1] is functional sodium and potassium channels in hiPSC-neurons. The experiment in a line: Voltage-clamp recording of Na+ and K+ currents in hiPSC-derived neurons. Type of test: cell-based, human. Particulars: depolarizing voltage steps; hiPSC-neurons after 8 weeks of maturation. On the procedure: as §1, §2

On to `N#Cc1cc2c(cc1[N+](=O)[O-])=NC(=O)C(=O)N=2` [CNQX, 6-Cyano-7-nitroquinoxaline-2,3-dione], for which, in the test on hiPSC-derived neurons, the spontaneous synaptic events result was “blocked”.
Take `CC[N+](CC)(CC)CC` [TEA]: the “voltage-dependent inward and outward currents, sensitivity” value in test [1] was “selectively sensitive”.
